Assay results as given in US9695155B2, “Herbicidal substituted pyrimidinyloxy benzene compounds” (E. I. DU PONT DE NEMOURS AND COMPANY, priority 2013, dated 2017).

How the values were obtained:
[1] = test system: blackgrass; assay: Test D postemergence; type: in vivo, Alopecurus myosuroides
How it was run: (§1)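 Values are 0–100 visual control ratings (0 none, 100 complete) given 7–21 days after application. Soil for preemergence was silt loam; postemergence plants stood 2–18 cm tall.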

[2] = test system: bluegrass; assay: Test D postemergence; type: in vivo, Poa annua
How it was run: as §1

[3] = test system: kochia; assay: Test D preemergence; type: in vivo, Kochia scoparia
How it was run: as §1

[4] = test system: Russian thistle; assay: Test D preemergence; type: in vivo, Salsola kali; parameters: key: 0 = no effect, 100 = complete control
How it was run: as §1

[5] = test system: wild radish; assay: Test D postemergence; type: in vivo, Raphanus raphanistrum
How it was run: as §1

[6] = test system: Russian thistle; assay: Test D postemergence; type: in vivo, Salsola kali
Description: Seeds of plant species selected from bluegrass (annual bluegrass, Poa annua), blackgrass (Alopecurus myosuroides), canarygrass (littleseed canarygrass, Phalaris minor), chickweed (common chickweed, Stellaria media), galium (catchweed bedstraw, Galium aparine), bromegrass, downy (downy bromegrass, Bromus tectorum), field poppy (Papaver rhoeas), field violet (Viola arvensis), green foxtail (Setaria viridis), deadnettle (henbit deadnettle, Lamium amplexicaule), Italian ryegrass (Lolium multiflorum), kochia (Kochia scoparia), lambsquarters (Chenopodium album), oilseed rape (Brassica napus), pigweed (Amaranthus retroflexus), chamomile (scentless chamomile, Matricaria inodora), Russian thistle (Salsola kali), speedwell (bird's-eye speedwell, Veronica persica), spring barley (Hordeum vulgare), spring wheat (Triticum aestivum), wild buckwheat (Polygonum convolvulus), wild mustard (Sinapis arvensis), wild oat (Avena fatua), wild radish (Raphanus raphanistrum), windgrass (Apera spica-venti), winter barley (Hordeum vulgare), and winter wheat (Triticum aestivum) were planted into a silt loam soil and treated preemergence with test chemicals formulated in a non-phytotoxic solvent mixture which included a surfactant.
At the same time, these species were planted in pots containing Redi-Earth® planting medium (Scotts Company, 14111 Scottslawn Road, Marysville, Ohio 43041) comprising spaghnum peat moss, vermiculite, wetting agent and starter nutrients and treated with postemergence applications of the test chemicals formulated in the same manner. Plants ranged in height from 2 to 18 cm (1- to 4-leaf stage). Treated plants and controls were maintained in a controlled growth environment for 7 to 21 days after which time all species were compared to controls and visually evaluated. Plant response ratings, summarized in Table D, are based on a scale of 0 to 100 where 0 is no effect and 100 is complete control. A dash (-) response means no test result.

[7] = test system: bromegrass, downy; assay: Test D postemergence; type: in vivo, Bromus tectorum
How it was run: as §1

[8] = test system: wild oat; assay: Test D postemergence; type: in vivo, Avena fatua
How it was run: as §1

[9] = test system: bluegrass; assay: Test D preemergence; type: in vivo, Poa annua
How it was run: as §1

[10] = Postemergence, 62 g ai/ha, scale 0 to 100 (0 no effect, 100 complete control)
[11] = Postemergence, 31 g ai/ha, scale 0 to 100 (0 no effect, 100 complete control)
[12] = Postemergence, 125 g ai/ha, scale 0 to 100 (0 no effect, 100 complete control)
[13] = postemergence, 16 g ai/ha, scale 0 to 100, 0 no effect, 100 complete control
[14] = 16 g ai/ha, scale 0 (no effect) to 100 (complete control)
[15] = 31 g ai/ha, scale 0 to 100 (0 no effect, 100 complete control)
[16] = 62 g ai/ha, scale 0 to 100 (0 no effect, 100 complete control)
[17] = 125 g ai/ha, scale 0 to 100 (0 no effect, 100 complete control)

In the case of `FCc1cccc(Oc2ncc(Cl)cn2)c1-n1cc(I)cn1` [Compound 245], the “Plant response rating, Blackgrass” value [1, 10] is reported as 20, the “Plant response rating, Blackgrass” value [1, 11] is reported as 10 and the “Plant response rating, Blackgrass” value [1, 12] is reported as 25. For the same compound, the “Plant response rating, Blackgrass” value [1, 13] was 5, the “Plant response rating, Bluegrass” value [2, 10] was 15 and the “Plant response rating, Bluegrass” value [2, 11] was 20. For the same compound, the “Plant response rating, Bluegrass” value [2, 12] was 30, the “Plant response rating, Bluegrass” value [2, 13] was 10 and the “Plant response rating, Kochia” value [3, 14] was 0. For the same compound, the “Plant response rating, Kochia” value ([3]; 31 g ai/ha, scale 0-100) was 0, the “Plant response rating, Kochia” value ([3]; 62 g ai/ha, scale 0-100) was 75 and the “Plant response rating, Kochia” value ([3]; 125 g ai/ha, scale 0-100) was 75. For the same compound, the “Plant response rating, Russian Thistle” value [4, 14] was 5, the “Plant response rating, Russian Thistle” value ([4]; 31 g ai/ha, scale 0 (no effect) to 100 (complete control)) was 10 and the “Plant response rating, Russian Thistle” value ([4]; 125 g ai/ha, scale 0-100) was 70. For the same compound, the “Plant response rating, Radish, Wild” value ([5]; 16 g ai/ha, scale 0-100) was 35, the “Plant response rating, Radish, Wild” value [5, 15] was 45 and the “Plant response rating, Radish, Wild” value [5, 16] was 55. For the same compound, the “Plant response rating, Radish, Wild” value [5, 17] was 85, the “Plant response rating, Russian Thistle” value ([6]; 16 g ai/ha, scale 0-100) was 55 and the “Plant response rating, Russian Thistle” value [6, 15] was 75. The “Plant response rating, Russian Thistle” value [6, 16] was 70, the “Plant response rating, Russian Thistle” value [6, 17] was 80 and the “Plant response rating, Bromegrass, Downy” value [7, 10] was 25. For the same compound, the “Plant response rating, Bromegrass, Downy” value [7, 11] was 20, the “Plant response rating, Bromegrass, Downy” value [7, 12] was 30 and the “Plant response rating, Bromegrass, Downy” value [7, 13] was 20. The “Plant response rating, Oat, Wild” value ([8]; 16 g ai/ha, scale 0-100) was 0, the “Plant response rating, Oat, Wild” value [8, 15] was 0 and the “Plant response rating, Oat, Wild” value [8, 16] was 10. The “Plant response rating, Oat, Wild” value [8, 17] was 10, the “Plant response rating, Bluegrass” value [9, 14] was 0 and the “Plant response rating, Bluegrass” value ([9]; 31 g ai/ha, scale 0-100) was 0. The “Plant response rating, Bluegrass” value ([9]; 62 g ai/ha, scale 0-100) was 0 and the “Plant response rating, Bluegrass” value ([9]; 125 g ai/ha, scale 0-100) was 20.
